Values quoted from earlier work as cited in patent US20110143366A1, “PROTEIN BIOMARKERS FOR IN VITRO TESTING OF DEVELOPMENTAL TOXICITY AND ENBRYOTOXICITY OF CHEMICAL SUBSTANCES” (PROTEOSYS AG, priority 2008, published 2011).

Test system: Cardiomyocytes differentiated from murine embryonic stem cells (EST model)
Details: substances with known embryotoxic potency used in the EST model

SMILES | Embryotoxicity class of the substance
N#CCCN [β-aminoproprionitril] | non-embryotoxic
CCN(CC)CCNC(=O)c1cc(Cl)c(N)cc1OC [metoclopramide] | non-embryotoxic
O=[N+]([O-])c1ccc(Oc2ccc(Cl)cc2Cl)cc1 [Nitrofen] | highly embryotoxic
CC[C@H](C)C(=O)O[C@H]1C[C@@H](C)C=C2C=C[C@H](C)[C@H](CC[C@@H]3C[C@@H](O)CC(=O)O3)[C@H]21 [Lovastatin] | highly embryotoxic
CC(C)(S)[C@@H](N)C(=O)O [D-penicillamine] | non-embryotoxic
CN(C)CCOC(C)(c1ccccc1)c1ccccn1 (centres unmarked) [doxylamine] | non-embryotoxic
C[C@@H]1Cc2c(Cl)cc(C(=O)N[C@@H](Cc3ccccc3)C(=O)O)c(O)c2C(=O)O1 [Ochratoxin, Ochratoxin-A] | highly embryotoxic
CC[C@H](C)C(=O)O[C@H]1C[C@H](O)C=C2C=C[C@H](C)[C@H](CC[C@@H](O)C[C@@H](O)CC(=O)O)[C@H]21 [pravastatin] | moderately embryotoxic
